Experimental data: PMC2854587 (Nature, 2008)

Biological target: T1, SrfTEII (surfactin type II thioesterase; SrfD, external thioesterase) (Bacillus subtilis, UniProt Q08788)
T1 sequence (Q08788 1-241): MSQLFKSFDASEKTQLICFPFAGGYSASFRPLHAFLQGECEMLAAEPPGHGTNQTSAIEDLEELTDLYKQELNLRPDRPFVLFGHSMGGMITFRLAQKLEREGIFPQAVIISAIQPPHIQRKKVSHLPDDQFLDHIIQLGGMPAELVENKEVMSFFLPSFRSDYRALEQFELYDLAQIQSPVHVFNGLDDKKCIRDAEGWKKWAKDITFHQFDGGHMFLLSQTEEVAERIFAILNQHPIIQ
Test: […]-HSQC NMR titration
Assay type: binding
Conditions: 296 K; 15N-enriched SrfTEII

For `CCCCCCCCCCCCCC(=O)SCCNC(=O)CCNC(=O)[C@H](O)C(C)(C)COP(=O)(O)OP(=O)(O)OC[C@H]1O[C@@H](n2cnc3c(N)ncnc32)[C@H](O)[C@@H]1OP(=O)(O)O` [myristoyl-CoA], which “15N-HSQC NMR titration (chemical shift perturbation)” value is on record?
The value was “Interestingly, myristoyl-CoA also binds to SrfTEII”.
